Patent US9796777B2, “Methods of treating malignant tumors” (Canimguide Therapeutics AB, priority 2007, dated 2017)

Key:
PBMCs = test: PHA-induced proliferation of PBMC in the presence of albumin peptides and/or dHSA; format: cell-based, human; settings: PBMCs from two healthy controls; two PHA concentrations
Excerpt: Venous blood was drawn from healthy volunteers or from cancer patients in glass vacuum tubes with acid dextrose citrate solution A as anti-coagulant (Vacutainer, Becton Dickinson, Franklin Lakes, N.J.). Erythrocytes were removed by sedimentation on 2% dextran T500 solution (Amersham Pharmacia Biotech AB, Uppsala, Sweden) in 0.9% NaCl (this step was omitted for cultures with PHA-stimulation-see below). […] For cell cultures with PHA-stimulation, PBMC were washed in Hank's Balanced Salt Solution (HBSS) with 10% autologous plasma instead of RPMI/2% HSA. […] The cell suspension was stained with Turk's solution and the number of lymphocytes and monocytes in the PBMC preparation were counted in a hemocytometer. PBMCs were suspended in RPMI/2% HSA and the cell concentration adjusted to 5×10^5 lymphocytes/ml.
100 μl of the cell suspension were seeded into round-bottomed microtiter plates (Corning, N.Y., USA) followed by 100 μl of culture medium consisting of RPMI 1640 (Flow Laboratories, Irvine, Scotland) supplemented with 200 IU/ml Penicillin, 200 μg/ml Streptomycin (Flow laboratories) and 20% heat inactivated autologous serum. Phytohemagglutinin (PHA-P, Sigma Chemical Co, St. Louis, Mo.) at a final concentration of 5 or 10 μg/ml was then added.
All culture conditions were set up in triplicate wells. […] Mean values of disintegrations per minute (dpm) of triplicates were used for the calculations.

PBMC [1] = test: LPS-induced IL-6 production by PBMC, effect of peptides; format: cell-based, human; settings: three cancer patients
PBMC [2] = test: IL-2 induced proliferation of PBMC with albumin peptides in coated and uncoated tissue culture plates; format: cell-based, human
Procedure: A mixture of 1 mg/ml IgG in a solution of 9 mg/ml HSA in RPMI (HSA/IgG) was also prepared. 200 μl of HSA or HSA/IgG were then added to each well of the plate. The plates were incubated at 4° C. for 30 minutes after which the wells were washed twice with 200 μl of RPMI1640. The coated plates were used immediately. […] PBMC, isolated from healthy individuals, were diluted in RPMI/2% HSA and peptides were added directly to the cell suspension at a concentration of 10 μg/ml.

PBMC [3] = test: IL-2 induced proliferation of PBMC in the presence of affinity purified rabbit anti-3028; format: cell-based, human; settings: small amount of peptide 3028 having no inhibitory activity per se
Procedure: Serum containing culture medium (100 ul/well) was pre-incubated with 20 ug/ml of rabbit antibodies for 30 min at room temperature before the addition of 100 ul PBMC suspension to the culture wells.

[4] = tested on: natural killer (NK) cells; test: Cytotoxic activity of natural killer (NK) cells against K562 (NKTEST, flow cytometry); format: cell-based, human; settings: four healthy donors; peptides 10 ug/ml; effector:target ratio 40:1
Procedure: Mononuclear cells were separated by standard Ficoll-paque Plus (Pharmacia AB, Sweden) density gradient centrifugation from heparinized blood obtained from healthy donors. NK cell cytotoxic activity of the mononuclear cells was then tested using a commercial kit (NKTEST, Orpegen Pharma GmbH, Heidelberg, Germany) following the manufacturers protocol. Briefly, the kit contains cryopreserved, NK-sensitive target cells (K562) labelled with a lipophilic green fluorescent membrane dye, which enables discrimination of effector and target cells. After incubation with effector cells, killed target cells are identified by a DNA-stain, which penetrates and specifically stain the nuclei of dead target cells. This way the percentage of killed targets can be determined by flow cytometry. The mononuclear cells were pre-incubated for 30 min at 37° C. with the indicated peptides (peptides have been described previously) at 10 ug/ml. Target cells were then added, giving an effector:target ratio of 40:1, and the cell mixture incubated at 37° C. for 3-4 hours. Samples were analysed on a FACSCalibur (BD Biosciences, San Jose, Calif.).

PBMC [5] = test: Human ex vivo model: IL-2 induced proliferation of PBMC in the presence of albumin peptides

## VFDEFKPLVEEPQNLIK [peptide 3028]
PBMCs
  effect on dHSA modulated PHA stimulated proliferation: inhibited the stimulatory activity of dHSA
PBMC [1]
  effect on LPS induced IL-6 production: essentially no effects
PBMC [2]; HSA/IgG coated plates
  inhibitory effect on IL-2 induced proliferation under modulation of the Fc-receptor cross-linking: completely reversed
PBMC [2]; PBMC from healthy individuals, peptide 5 μg/ml final, 7 days
  effect on IL-2 induced proliferation: highly inhibitory
PBMC [3]
  effect on the stimulatory effect of anti-3028 antibodies: neutralized
[4]
  effect on percent specific lysis of K562 target cells: reduced the percent specific lysis of K562 target cells by all four donors
PBMC [5]; cancer patient PBMCs
  effect on IL-2 induced proliferation: inhibitory activity
PBMC [5]; human ex vivo model, PBMCs from healthy controls, peptides 10 μg/ml
  effect on IL-2 induced proliferation: regularly inhibits IL-2 induced proliferation
